Assay results taken from ChEMBL document CHEMBL1158284, “Biological activities of the nortropane alkaloid, calystegine B2, and analogs: structure-function relationships” (J Nat Prod, 1996).
Activity calls are given as the source filed them. The rule behind the calls is not given here.

How the values were obtained:
Agrobacterium rhizogenes = assay: Antibacterial activity against Cac gene-deficient Agrobacterium rhizogenes HRI; format: functional, organism-based
Medicago sativa [1] = assay: Allellopathic effect in Medicago sativa assessed as reduction in root elongation at 10 mM after 43 hrs; format: functional; set-up: scale not given: the % may be the effect or the level left
Prunus dulcis [2] = assay: Inhibition of almond beta-glucosidase at 0.5 mg/mL
[3] = system: Agrobacterium tumefaciens; assay: Antibacterial activity against Cac gene-deficient Agrobacterium tumefaciens C58C1; format: functional, organism-based
Medicago sativa [4] = assay: Allellopathic effect in Medicago sativa assessed as reduction in root elongation at 5 mM after 19 hrs; format: functional; set-up: scale not given: the % may be the effect or the level left
Aspergillus niger [5] = assay: Inhibition of Aspergillus niger alpha-galactosidase 1.0 mg/mL
Sinorhizobium meliloti [6] = assay: Antibacterial activity against Cac gene-deficient Rhizobium meliloti GMI13; format: functional, organism-based
Medicago sativa [7] = assay: Allellopathic effect in Medicago sativa assessed as inhibition of seed germination up to 10 mM; format: functional, organism-based
Medicago sativa [8] = assay: Allellopathic effect in Medicago sativa assessed as reduction in root elongation at 5 mM after 43 hrs; format: functional; set-up: scale not given: the % may be the effect or the level left
Sinorhizobium meliloti [9] = assay: Antibacterial activity against Cac gene-deficient Rhizobium meliloti RCR2011; format: functional, organism-based
Medicago sativa [10] = assay: Allellopathic effect in Medicago sativa assessed as reduction in root elongation at 10 mM after 19 hrs; format: functional; set-up: scale not given: the % may be the effect or the level left
Sinorhizobium meliloti [11] = assay: Induction of Cac gene-expressing Rhizobium meliloti 41 growth; format: functional, organism-based
Medicago sativa [12] = assay: Allellopathic effect in Medicago sativa assessed as inhibition of seed germination at 5 mM; format: functional
[13] = (§1) Inhibition of almond beta-glucosidase; set-up: species or system Prunus dulcis
[14] = (§2) Inhibition of Aspergillus niger alpha-galactosidase
Prunus dulcis [15] = assay: as §1
Aspergillus niger [16] = assay: as §2

SMILES | Activity (Agrobacterium rhizogenes) | Activity (Medicago sativa [1]) [%] | Activity (Prunus dulcis [2]) | Activity [3] | Activity (Medicago sativa [4]) [%] | Activity (Aspergillus niger [5]) | Activity (Sinorhizobium meliloti [6]) | Activity (Medicago sativa [7]) | Activity (Medicago sativa [8]) [%] | Activity (Sinorhizobium meliloti [9]) | Activity (Medicago sativa [10]) [%] | Activity (Sinorhizobium meliloti [11]) | inhibition at 5000 µM (Medicago sativa [12]) [%] | Ki [13] [µM] | Ki [14] [µM] | Activity (Prunus dulcis [15]) | Activity (Aspergillus niger [16])
O[C@H]1[C@H](O)[C@H](O)[C@@]2(O)CC[C@@H]1N2 | inactive | 18 | inactive | inactive | 20 | inactive | inactive | inactive | 8 | inactive | 25 |  |  |  |  |  | 
O[C@@H]1[C@@H](O)[C@H](O)[C@]2(O)CC[C@H]1N2 [CALYSTEGINE B2] | inactive | 40 |  | inactive | 37 |  | inactive |  | 12 | inactive | 46 | Active | 50 | 4 | 7 |  | 
CN1[C@@H]2CC[C@@]1(O)[C@@H](O)[C@H](O)[C@H]2O |  |  |  |  |  |  |  |  |  |  |  |  |  |  |  | inactive | Active
